From patent US20250109141A1, “BRD4 PROTEIN DEGRADER COMPOUND, AND PREPARATION METHOD AND USE THEREOF” (Miracure Biotechnology Limited, priority 2023, published 2025)
pIC50: −log10 of the molar value. Where two headings read alike, the source gives them in different places.

Legend:
[1] = system: 22RV1; assay: Cell proliferation assay (CellTiterGlo, 72 h), 22RV1; format: cell-based; details: Homo sapiens, read-out: 22Rv1 ATP average IC50
Procedure: All incubations were performed at 37° C. in a humidified carbon dioxide incubator.
(§1) The cells were seeded in a 96-well plate (white wall/transparent bottom) at 5000 cells/well and cultured overnight.
(§2) On day 2, A stock solution of the compound at a concentration of 10 mM was subjected to an 8-fold serial dilution to obtain 8 concentration points. 2 μL of the compound solution at each concentration point was added to 98 μL of fresh medium, and the mixture was mixed homogeneously. Then, 5 μL of the compound solution diluted in the medium at each concentration point was added to 100 μL of overnight medium containing the cells, and 2 replicates were set for each concentration. The mixture was cultured for 72 h.
(§3) After 72 h of compound treatment, the plate was equilibrated to room temperature, 100 μL of CellTiterGlo (Promega) was added. The mixture was mixed homogeneously for 2 min, left to stand at room temperature for 10 min, and then read for luminescence values on a SpectraMax M5 microplate reader to evaluate cell viability. The positive control was 1% Tween-20 and the negative control was 0.1% DMSO. IC50 was generated by 4-parameter non-linear regression fitting in GraphPad Prism.

[2] = system: LNCaP; assay: Cell proliferation assay (CellTiterGlo, 72 h), LNCaP; format: cell-based; details: Homo sapiens, LNCap cells, 72 h compound treatment, read-out: LNCap ATP average IC50
Procedure: The cell line used was 22RV1 or LNCaP, and the medium was RPMI-1640 containing 10% FBS and antibiotics. All incubations were performed at 37° C. in a humidified carbon dioxide incubator.
On day 1, cells were digested with 0.25% trypsin (containing EDTA) and collected by centrifugation.
as §1, §2, §3

[3] = target: T1, BRD4 (Homo sapiens, UniProt O60885); assay: BRD4 degradation assay (Western-blot / Simple Western) in LNCap; format: cell-based; details: LNCap cells, target content as percentage of control (DMSO = 100%)
Procedure: The mixture was centrifuged for 5 min. […] The PVDF membrane was cut and labeled. […] Images were acquired and analyzed.

[4] = target: T1, BRD4; assay: BRD4 degradation assay (Western-blot / Simple Western) in 22RV1; details: 22RV1 cells, target content as percentage of control (DMSO = 100%)
[5] = 22Rv1 cells, 72 h compound treatment, CellTiterGlo

Row | SMILES | pIC50 ([1]; 22Rv1, 72 h) | pIC50 [2] | BRD4 degradation of LNCap (200 nM 5 h) [3] | BRD4 degradation of 22RV1 (200 nM 5 h) [4] | pIC50 [1, 5]
1 | COc1ccc2c(c1)C(c1ccc(/C=C/CN)cc1)=N[C@@H](CC(=O)OC(C)(C)C)c1nnc(C)n1-2 [Compound 9131] | 6.70 to 7.30 | > 7.30 | A (A<20%) | B (20%<B<50%) | –
2 | COc1ccc2c(c1)C(c1ccc(C#CCNO)cc1)=N[C@@H](Cc1nccs1)c1nnc(C)n1-2.Cl [Compound 9174] | 6.30 to 6.70 | 6.70 to 7.30 | B (20%<B<50%) | C (50%<C<80) | –
3 | COc1ccc2c(c1)C(c1ccc(/C=C/CNO)cc1)=N[C@@H](Cc1nccs1)c1nnc(C)n1-2.Cl [Compound 9167] | > 7.30 | > 7.30 | A (A<20%) | – | –
4 | COc1ccc2c(c1)C(c1ccc(/C=C/CNOC(C)=O)cc1)=N[C@@H](CC(=O)OC(C)(C)C)c1nnc(C)n1-2 [Compound 9146] | > 7.30 | > 7.30 | A (A<20%) | A (A<20%) | –
5 | COc1ccc2c(c1)C(c1ccc(/C=C/CNO)cc1)=N[C@@H](CC(=O)OC1(C)CC1)c1nnc(C)n1-2 [Compound 9185] | > 7.30 | > 7.30 | A (A<20%) | B (20%<B<50%) | –
6 | COc1ccc2c(c1)C(c1ccc(C#CCNO)cc1)=N[C@@H](CC(=O)OC(C)(C)C)c1nnc(C)n1-2 [Compound 9130] | > 7.30 | > 7.30 | A (A<20%) | B (20%<B<50%) | –
7 | COc1ccc2c(c1)C(c1ccc(/C=C/CN)cc1)=N[C@@H](Cc1nccs1)c1nnc(C)n1-2 [Compound 9140] | < 6.30 | 6.70 to 7.30 | B (20%<B<50%) | B (20%<B<50%) | –
8 | CONC/C=C/c1ccc(C2=N[C@@H](CC(=O)OC(C)(C)C)c3nnc(C)n3-c3sc(C)c(C)c32)cc1 [Compound 9065] | – | > 7.30 | – | B (20%<B<50%) | > 7.30
9 | CC(=O)N(O)C/C=C/c1ccc(C2=N[C@@H](CC(=O)OC(C)(C)C)c3nnc(C)n3-c3sc(C)c(C)c32)cc1 [Compound 9109] | – | 6.70 to 7.30 | – | C (50%<C<80) | 6.30 to 6.70
10 | COc1ccc2c(c1)C(c1ccc(C#CCN)cc1)=N[C@@H](Cc1nccs1)c1nnc(C)n1-2 [Compound 9139] | 6.70 to 7.30 | > 7.30 | A (A<20%) | B (20%<B<50%) | –
11 | Cc1sc2c(c1C)C(c1ccc(/C=C/CNO)cc1)=N[C@@H](CC(=O)OC(C)(C)C)c1nnc(C)n1-2 [Compound 9011] | – | > 7.30 | – | A (A<20%) | > 7.30
12 | Cc1sc2c(c1C)C(c1ccc(/C=C/CNO)cc1)=N[C@@H](Cc1nccs1)c1nnc(C)n1-2 [Compound 9166] | – | > 7.30 | – | A (A<20%) | > 7.30
13 | Cc1sc2c(c1C)C(c1ccc(C3CC3/C=N/O)cc1)=N[C@@H](CC(=O)OC(C)(C)C)c1nnc(C)n1-2 (stereo partly shown) [Compound 9148] | – | 6.70 to 7.30 | – | C (50%<C<80) | 6.70 to 7.30
